Measured values as given in the SangsterLogP compilation.

assay: not given

SMILES	logP
OCCNCCO	-1.43
NCCO	-1.31
C1CNCCN1	-1.17
CC(O)CN (centres undefined)	-0.96
CC(O)CNCC(C)O (centres undefined)	-0.82

assay: method code SF-CR, from DOI: 10.3891/acta.chem.scand.05-0774

SMILES	logP
COCOC	0
COC(C)=O	0.18
CC(O)C(C)O (centres undefined)	-0.92

assay: method code SF-TN, from DOI: 10.3891/acta.chem.scand.05-0774

SMILES	logP
CC(C)(O)C(=O)O	-0.36
CCC(Br)C(=O)O (centres undefined)	1.42
O=C(O)CC(O)C(=O)O (centres undefined)	-1.26
O=C(O)CBr	0.41
O=C(O)CCCCCCCC(=O)O	1.59
CC(Br)C(=O)O (centres undefined)	0.92
